biological target: FimH-CRD (Escherichia coli, UniProt P08191); assay: Competitive binding assay (fluorescence polarization, Alexa647 mannoside probe)
Protocol: The following competitive binding assay is performed: Round bottom, low volume 384-well microtiter plates are filled with 20 μl/well of a binding solution of FimH-CRD in 50 mM Tris, pH 7.0, 100 mM NaCl, 1 mM EDTA, 5 mM beta mercaptoethanol, 0.05% BSA, 5 nM of the Alexa647 mannoside probe and 60 nM of the FimH-CRD. Control wells using the same conditions but no FimH-CRD added are also prepared (protein-free). Compounds are serially diluted (12-point dose) in DMSO from 75 μM down to 0.4 nM. Compounds or DMSO are then added to each well (0.5 μl) to reach the final concentration of each drug (2.5% final DMSO concentration), in duplicate. Plates are then incubated for a minimum of five hours at room temperature in the dark. Plates are then read using the SpectaMax Paradigm Multi-Mode plate reader and the appropriate fluorescent polarization Detection cartridge (Alexa-647).
Alexa 647 mannoside probe is prepared using the similar procedure reported for FAM mannoside (Han, Z. et. al., 2010, J. Med. Chem., 53, 4779) and is described in the scheme below.
To a blue colored stirred solution of (2S,3S,4S,5S,6R)-2-(4-aminobutoxy)-6-(hydroxymethyl)tetrahydropyran-3,4,5-triol (2.21 mg, 0.009 mmol) and the (2E)-2-[(2E,4E)-5-[3,3-dimethyl-5-sulfonato-1-(3-sulfonatopropyl)indol-1-ium-2-yl]penta-2,4-dienylidene]-3-[6-(2,5-dioxopyrrolidin-1-yl)oxy-6-oxo-hexyl]-3-methyl-1-(3-sulfonatopropyl)indoline-5-sulfonate (Potassium Ion (3)) (4.9 mg, 0.0044 mmol) in DMF (44 μL) is added Et3N (5.4 mg, 7.0 μL, 0.053 mmol) at rt. The solution is stirred at room temperature over night, concentrated, dissolved in water and purified on 12 g C-18 silica gel cartridge on Isolera system using acetonitrile in water (0 to 40%, 10 CV) and followed by lyophilization to afford Alexa 647 mannoside probe (3.3 mg, 34%) as deep blue solid.
The Kd values of the compounds tested in duplicates are calculated with prism software (GraphPad Software, Inc, La Jolla, USA) with Alexa-647 probe and FimH-CRD.

FimH-CRD, sequence (P08191 22-177): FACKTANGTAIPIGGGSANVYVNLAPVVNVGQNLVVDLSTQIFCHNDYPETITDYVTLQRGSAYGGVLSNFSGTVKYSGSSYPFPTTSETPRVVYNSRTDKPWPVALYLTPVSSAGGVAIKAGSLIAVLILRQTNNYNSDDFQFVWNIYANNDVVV

`CNC(=O)c1cccc(-c2ccc(O[C@H]3O[C@H](CO)[C@@H](O)[C@H](C[C@H]4O[C@H](CO)[C@@H](O)[C@H](O)[C@@H]4O)[C@@H]3O)cc2)c1` [Compound 3, 3-[4-[(2R,3S,4S,5S,6R)-3,5-Dihydroxy-6-(hydroxymethyl)-4-[[(2R,3S,4R,5S,6R)-3,4,5-trihydroxy-6-(hydroxymethyl)tetrahydropyran-2-yl]methyl]tetrahydropyran-2-yl]oxyphenyl]-N-methyl-benzamide] and `CNC(=O)Cc1cccc(-c2ccc(O[C@H]3O[C@H](CO)[C@@H](O)[C@H](C[C@H]4O[C@H](CO)[C@@H](O)[C@H](O)[C@@H]4O)[C@@H]3O)cc2)c1` [Compound 9, 2-[3-[4-[(2R,3S,4S,5S,6R)-3,5-Dihydroxy-6-(hydroxymethyl)-4-[[(2R,3S,4R,5S,6R)-3,4,5-trihydroxy-6-(hydroxymethyl)tetrahydropyran-2-yl]methyl]tetrahydropyran-2-yl]oxyphenyl]phenyl]-N-methyl-acetamide] are within 1.5-fold of each other in Kd: 0.066 µM for the first, 0.079 µM for the second.

`Cc1nnc(-c2ccc(-c3ccc(O[C@H]4O[C@H](CO)[C@@H](O)[C@H](C[C@H]5O[C@H](CO)[C@@H](O)[C@H](O)[C@@H]5O)[C@@H]4O)cc3)cc2)o1` [Compound 7, (2R,3S,4R,5S,6R)-2-[[(2R,3S,4S,5S,6R)-3,5-Dihydroxy-2-(hydroxymethyl)-6-[4-[4-(5-methyl-1,3,4-oxadiazol-2-yl)phenyl]phenoxy]tetrahydropyran-4-yl]methyl]-6-(hydroxymethyl)tetrahydropyran-3,4,5-triol] and `O=c1[nH]cc(-c2ccc(O[C@H]3O[C@H](CO)[C@@H](O)[C@H](C[C@H]4O[C@H](CO)[C@@H](O)[C@H](O)[C@@H]4O)[C@@H]3O)cc2)c(=O)[nH]1` [Compound 11, 5-[4-[(2R,3S,4S,5S,6R)-3,5-Dihydroxy-6-(hydroxymethyl)-4-[[(2R,3S,4R,5S,6R)-3,4,5-trihydroxy-6-(hydroxymethyl)tetrahydropyran-2-yl]methyl]tetrahydropyran-2-yl]oxyphenyl]-1H-pyrimidine-2,4-dione] are within 1.5-fold of each other in Kd: 0.094 µM for the first, 0.097 µM for the second.

`CNC(=O)Cc1cccc(-c2cccc(O[C@H]3O[C@H](CO)[C@@H](O)[C@H](C[C@H]4O[C@H](CO)[C@@H](O)[C@H](O)[C@@H]4O)[C@@H]3O)c2)c1` [Compound 10, 2-[3-[3-[(2R,3S,4S,5S,6R)-3,5-Dihydroxy-6-(hydroxymethyl)-4-[[(2R,3S,4R,5S,6R)-3,4,5-trihydroxy-6-(hydroxymethyl)tetrahydropyran-2-yl]methyl]tetrahydropyran-2-yl]oxyphenyl]phenyl]-N-methyl-acetamide] and `CNC(=O)c1cccc(-c2ccc(O[C@H]3O[C@H](CO)[C@@H](O)[C@H](C[C@H]4O[C@H](CO)[C@@H](O)[C@H](O)[C@@H]4O)[C@@H]3O)c(C)c2)c1` [Compound 4, 3-[4-[(2R,3S,4S,5S,6R)-3,5-Dihydroxy-6-(hydroxymethyl)-4-[[(2R,3S,4R,5S,6R)-3,4,5-trihydroxy-6-(hydroxymethyl)tetrahydropyran-2-yl]methyl]tetrahydropyran-2-yl]oxy-3-methyl-phenyl]-N-methyl-benzamide] are within 1.5-fold of each other in Kd: 0.05 µM for the first, 0.051 µM for the second.

Compared with `CNC(=O)c1cccc(O[C@H]2O[C@H](CO)[C@@H](O)[C@H](C[C@H]3O[C@H](CO)[C@@H](O)[C@H](O)[C@@H]3O)[C@@H]2O)c1` [Compound 5, 3-[(2R,3S,4S,5S,6R)-3,5-Dihydroxy-6-(hydroxymethyl)-4-[[(2R,3S,4R,5S,6R)-3,4,5-trihydroxy-6-(hydroxymethyl)tetrahydropyran-2-yl]methyl]tetrahydropyran-2-yl]oxy-N-methyl-benzamide], `OC[C@H]1O[C@H](C[C@@H]2[C@H](O)[C@@H](Oc3cccc(O)c3)O[C@H](CO)[C@H]2O)[C@@H](O)[C@@H](O)[C@@H]1O` [Compound 6, (2R,3S,4R,5S,6R)-2-[[(2R,3S,4S,5S,6R)-3,5-Dihydroxy-2-(hydroxymethyl)-6-(3-hydroxyphenoxy)tetrahydropyran-4-yl]methyl]-6-(hydroxymethyl)tetrahydropyran-3,4,5-triol] is 4.2-fold higher in Kd: 0.072 µM for the first, 0.301 µM for the second.

Going from `CO[C@H]1O[C@H](CO)[C@@H](O)[C@H](C(O)[C@H]2O[C@H](CO)[C@@H](O)[C@H](O)[C@@H]2O)[C@@H]1O` (stereo partly drawn) [Compound 2, (2R,3S,4S,5S,6R)-2-[[(2R,3S,4R,5S,6S)-3,5-Dihydroxy-2-(hydroxymethyl)-6-methoxy-tetrahydropyran-4-yl]-hydroxy-methyl]-6-(hydroxymethyl)tetrahydropyran-3,4,5-triol] to `CNC(=O)c1cccc(-c2ccc(O[C@H]3O[C@H](CO)[C@@H](O)[C@H](C(O)[C@H]4O[C@H](CO)[C@@H](O)[C@H](O)[C@@H]4O)[C@@H]3O)cc2)c1` (stereo partly drawn) [Compound 1, 3-[4-[(2R,3S,4R,5S,6R)-3,5-Dihydroxy-6-(hydroxymethyl)-4-[hydroxy-[(2R,3S,4S,5S,6R)-3,4,5-trihydroxy-6-(hydroxymethyl)tetrahydropyran-2-yl]methyl]tetrahydropyran-2-yl]oxyphenyl]-N-methyl-benzamide], the Kd falls from 0.124 µM to 0.029 µM (4.3-fold).

`CNC(=O)c1cc(C(=O)NC)cc(-c2cccc(O[C@H]3O[C@H](CO)[C@@H](O)[C@H](C[C@H]4O[C@H](CO)[C@@H](O)[C@H](O)[C@@H]4O)[C@@H]3O)c2)c1` [Compound 13, 5-[3-[(2R,3S,4S,5S,6R)-3,5-Dihydroxy-6-(hydroxymethyl)-4-[[(2R,3S,4R,5S,6R)-3,4,5-trihydroxy-6-(hydroxymethyl)tetrahydropyran-2-yl]methyl]tetrahydropyran-2-yl]oxyphenyl]-N1,N3-dimethyl-benzene-1,3-dicarboxamide] and `CNC(=O)c1cc(C(=O)NC)cc(-c2ccc(O[C@H]3O[C@H](CO)[C@@H](O)[C@H](C[C@H]4O[C@H](CO)[C@@H](O)[C@H](O)[C@@H]4O)[C@@H]3O)cc2)c1` [Compound 8, 5-[4-[(2R,3S,4S,5S,6R)-3,5-Dihydroxy-6-(hydroxymethyl)-4-[[(2R,3S,4R,5S,6R)-3,4,5-trihydroxy-6-(hydroxymethyl)tetrahydropyran-2-yl]methyl]tetrahydropyran-2-yl]oxyphenyl]-N1,N3-dimethyl-benzene-1,3-dicarboxamide] are within 1.5-fold of each other in Kd: 0.048 µM for the first, 0.064 µM for the second.

Going from `O=C1NCC(c2ccc(O[C@H]3O[C@H](CO)[C@@H](O)[C@H](C[C@H]4O[C@H](CO)[C@@H](O)[C@H](O)[C@@H]4O)[C@@H]3O)cc2)=C(O)N1` [Compound 12, 5-[4-[(2R,3S,4S,5S,6R)-3,5-Dihydroxy-6-(hydroxymethyl)-4-[[(2R,3S,4R,5S,6R)-3,4,5-trihydroxy-6-(hydroxymethyl)tetrahydropyran-2-yl]methyl]tetrahydropyran-2-yl]oxyphenyl]-6-hydroxy-3,4-dihydro-1H-pyrimidin-2-one] to `CNC(=O)c1ccc(-c2ccc(C)c(O[C@H]3O[C@H](CO)[C@@H](O)[C@H](C[C@H]4O[C@H](CO)[C@@H](O)[C@H](O)[C@@H]4O)[C@@H]3O)c2)cc1` [Compound 15, 4-[3-[(2R,3S,4S,5S,6R)-3,5-Dihydroxy-6-(hydroxymethyl)-4-[[(2R,3S,4R,5S,6R)-3,4,5-trihydroxy-6-(hydroxymethyl)tetrahydropyran-2-yl]methyl]tetrahydropyran-2-yl]oxy-4-methyl-phenyl]-N-methyl-benzamide], the Kd falls from 0.111 µM to 0.019 µM (5.8-fold).
